Marks after values point to notes of the source that are not given here. One block for each compound: values may come before it.
Legend:
[1] = in vivo
Protocol: The study compared various dose routes: sublingual (SL), per oral tablet (PO), subcutaneous (SC) and intravenous (IV). […] An Oral Irritation assessment was performed (SL film group): Predose (0) and 24 hr postdose by Draize scoring.

[2] = Ex vivo permeation of epinephrine, Franz diffusion cell
Protocol: A franz diffusion cell is obtained and prepared.
If testing films, one can perform the following next steps: (1) weigh films, punch to match diffusion area (or smaller), reweigh, record pre- and post-punching weight; (2) wet a donor area with approximately 100 μL of phosphate buffer; (3) place film on a donor surface, top with 400 μL of phosphate buffer, and start timers.
The tissue is dermatomed to precise thickness. • 4. […] The media is selected to ensure sink conditions. • 5.

[3] = concentration ranges explored
[4] = AQST-109 single and repeat dose PK vs EpiPen and 0.3 mg IM (AQ109201); assay type: in vivo, human; details: for AUC(0-t) / Cmax / Tmax: human, plasma, intramuscular, 0.3 mg
Protocol: Referring to FIG. 35, the study was a controlled study in healthy volunteers. […] However, the need and use of a second dose can be quite rare. […] Within this context, a post hoc analysis was performed.

[5] = AQST-109 12 mg residence time / food / swallowed film PK study; assay type: in vivo, human; details: for Cmax / AUC(0-t): AQST-109 12 mg (N = 48 doses), Epinephrine IM Injection 0.3 mg (N = 48 doses)
Protocol: In this example, three different residence times were tested. The 4 minute residence time is shown in circle data points. The 2 minute residence time is shown in downward pointing triangle data points. The 0 minute residence time is shown in upward pointing triangle data points.
The purpose of this investigation was to continue to study the administration of the film under a variety of conditions and further characterize its pharmacokinetics, pharmacodynamics, and safety. The final two arms of the study were designed to assess the impact of (1) administering the film sublingually two minutes after consuming food—in this case, a peanut butter sandwich, and (2) swallowing the film whole immediately with 240 mL of water. The control arm used for reference was the optimized sublingual film administration with a four-minute residence time.

[6] = Pilot PK study of auto-injectors vs 0.3 mg manual IM injection; assay type: in vivo; details: human, plasma, intramuscular, 27 healthy subjects, crossover
[7] = AQ109201 safety, adverse events; assay type: in vivo, human
[8] = in PBS (pH 7.4) at 37°±1° C., n=6; cited from earlier work
[9] = assay type: in vitro ADME, porcine; details: pig, 360 min
From the text: FIG. 41B depicts a comparison of individual adrenergic receptor interacters in terms of amount permeated as a function of time.
FIG. 41C depicts ex vivo permeation as a function of time of different adrenergic receptor interacters in DESF compositions. The ex-vivo permeation in this example involved the exposure of porcine buccal tissue to formulations varying with regard to permeation enhancer(s) used and API concentration. […] Amount permeated increases with eugenol content, where eugenol contents in both test formulations were lower than that used in the control.
Ex-vivo permeation involved the exposure of porcine buccal tissue to formulations varying with regard to permeation enhancer(s) used and API concentration. […] Amount permeated increased with eugenol content, where eugenol contents in both test formulations were lower than that used in the control.

[10] = modified Ussing chambers; cited from earlier work
[11] = single dose: 12 mg, 0.3 mg, EpiPen

- % Boiavailability (DIPI AUC0-t) [1]: 128.5%
- % Boiavailability (EPI AUC0-t) [1]: 131.0%
- time until cleared from the system ([1]; iv): ≤ 2 h
- AUC(0-t) ([1]; iv, 1 mg): 0.887 ng·h/mL
- Cmax ([1]; iv, 1 mg): 11.7 ng/mL
- EPI Cmax (mean) ([1]; iv, 1 mg): 7.62 ng/mL
- DIPI AUC0-t ([1]; po, 6 mg): 0
- EPI Cmax (mean) ([1]; po, 6 mg): 0.28 ng/mL
- EPI Tmax ([1]; po, 6 mg): 120 min
- Tmax ([1]; po, 6 mg): 0 min
- AUC(0-t) ([1]; sc, 22 mg): 25.1 ng·h/mL
- Cmax ([1]; sc, 22 mg): 15 ng/mL
- EPI Cmax (mean) ([1]; sc, 22 mg): 12.5 ng/mL
- EPI Tmax ([1]; sc, 22 mg): 180 min
- Tmax ([1]; sc, 22 mg): 5 min
SMILES: CNC[C@H](O)c1ccc(OC(=O)C(C)(C)C)c(OC(=O)C(C)(C)C)c1 (racemic) [Dipi Solution, dipivefrin]

SMILES: C=CCc1ccc(O)c(OC)c1 [0.3% Eugenol]
- Permeability Coefficient [2]: 41.4 nm/s

SMILES: C=CCc1ccc(O)c(OC)c1 [3% Eugenol]
- Permeability Coefficient [2]: 74.3 nm/s

SMILES: C=CCc1ccc(O)c(OC)c1 [100% Eugenol]
- Permeability Coefficient [2]: 384 nm/s

SMILES: CNC[C@H](O)c1ccc(O)c(O)c1 [Epinephrine Base]
- Average Steady State Flux ([2]; conc 4.4 mg/mL, solubilized in situ): 0.512 ug/cm^2*min

SMILES: CNC[C@H](O)c1ccc(O)c(O)c1 [Epinephrine Bitartrate]
- permeation as a function of solution pH [2]: slightly favorable
- Theoretical enhancement ([2]; 8 mg/mL): 2
- Theoretical enhancement ([2]; 16 mg/mL): 4
- Theoretical enhancement ([2]; 100 mg/mL): 25
- average amount permeated ([2]; 30 min, 16 mg/mL): 0
- average flux ([2]; 30 min, 16 mg/mL): 0 μg/cm^2 * min
- average amount permeated ([2]; 45 min, 16 mg/mL): 2.5
- average flux ([2]; 45 min, 16 mg/mL): 0.2604 μg/cm^2 * min
- average amount permeated ([2]; 60 min, 16 mg/mL): 5.5
- average flux ([2]; 60 min, 16 mg/mL): 0.3125 μg/cm^2 * min
- average amount permeated ([2]; 120 min, 16 mg/mL): 31.33
- average flux ([2]; 120 min, 16 mg/mL): 0.6727 μg/cm^2 * min
- average amount permeated ([2]; 180 min, 8 mg/0.500 mL): 72.67
- average flux ([2]; 180 min, 8 mg/mL): 1.076 μg/cm^2 * min
- average amount permeated ([2]; 240 min, 16 mg/mL): 112.2
- average flux ([2]; 240 min, 16 mg/mL): 1.029 μg/cm^2 * min
- average amount permeated ([2]; 300 min, 16 mg/mL): 160.2
- average flux ([2]; 300 min, 16 mg/mL): 1.25 μg/cm^2 * min
- Average Steady State Flux ([2]; 360 min, 4 mg/mL): 0.167 ug/cm^2*min
- Average Steady State Flux ([2]; 360 min, 8 mg/mL): 0.466 ug/cm^2*min
- average amount permeated ([2]; 360 min, 16 mg/mL): 213.3
- average flux ([2]; 360 min, 16 mg/mL): 1.385 μg/cm^2 * min
- steady state flux average ([2]; 360 min, 16 mg/mL): 1.317
- Average Steady State Flux ([2]; 360 min, 100 mg/mL): 2.942 ug/cm^2*min
- inherent pH in solution [3]: 4.5-5

SMILES: CNC[C@H](O)c1ccc(O)c(O)c1 [Epinephrine IM Injection, epinephrine]
- AUC(0-t) ([4]; AUC 0-30 min, Repeat Dose (10 min)): 0.067 ng·h/mL
- Cmax ([4]; Repeat Dose (10 min), geometric mean, read-out: Cmax): 0.755 ng/mL
- AUC(0-t) ([4]; Repeat Dose (10 min), read-out: AUC0-45 min): 0.181 ng·h/mL
- AUC(0-t) ([4]; Repeat Dose (10 min), read-out: AUC 0-t): 1.3 ng·h/mL
- Tmax ([4]; Repeat Dose (10 min), read-out: Tmax (median) (converted)): 50 min
- Tmax ([4]; Repeat Dose (10 min), read-out: Tmax Range): 30 to 70 min
- Cmax ([4]; after one dose, read-out: maximum concentration, CMax): 0.489 ng/mL
- Cmax ([4]; after two doses, second dose ten minutes after the first, read-out: maximum concentration, CMax): 0.911 ng/mL
- Tmax ([4]; single dose administration, read-out: Tmax (median) (converted)): 45 min
- time after second dose administration until impact on PK profile ([4]; repeat dosing): over 20 min
- median time to reach 100 pg/mL ([5]; AQST-109 at 4-minute residence, 0.3 mg IM injection): 10 min
- Cmax ([5]; human, plasma, im, 0.3 mg, read-out: Arithmetic Mean Cmax): 0.397 ng/mL
- Cmax ([5]; human, plasma, im, 0.3 mg, read-out: Geometric Cmax): 0.351 ng/mL
- AUC(0-t) ([5]; human, plasma, im, 0.3 mg, AUC 0-20 minutes): 0.023 ng·h/mL
- AUC(0-t) ([5]; human, plasma, im, 0.3 mg, AUC 0-30 minutes): 0.0475 ng·h/mL
- Tmax ([5]; human, plasma, im, 0.3 mg, read-out: median time to maximum concentration (Tmax) (converted)): 50 min
- Cmax ([6]; read-out: geometric mean Cmax): 0.344 ng/mL
- Tmax ([6]; read-out: median Tmax (converted)): 50 min
- Cardiac disorders ([7]; repeat dose: 24 mg (N = 23), 0.6 mg (N = 23)): 1 (4.3) n (%)
- Palpitations ([7]; repeat dose: 24 mg, 0.6 mg): 1 (4.3) n (%)
- Ventricular extrasystoles ([7]; repeat dose: 24 mg, 0.6 mg): 1 (4.3) n (%)
- Cardiac disorders ([7]; single dose: 12 mg (N = 23), 0.3 mg (N = 23), EpiPen (N = 22)): 1 (4.3) n (%)
- Palpitations [7, 11]: 1 (4.3) n (%)
- Ventricular extrasystoles [7, 11]: 0 n (%)

SMILES: CC(C)NCC(O)COc1cccc2ccccc12 (stereo not shown) [PP]
- C0 of saturated solution [8]: 588.005 ± 5.852 ng/mL

- amount permeated [9]: 50 to 100 µg
SMILES: OCc1ccccc1 [benzyl alcohol]

SMILES: Cn1c(=O)c2c(ncn2C)n(C)c1=O [caffeine]
- permeability through buccal epithelium compared with full thickness buccal tissue [10]: 1.8 fold

- amount permeated [9]: 0 to 50 µg
SMILES: Cc1ccc(C(C)(C)O)cc1 [cherry propanol, 2-(4-methylphenyl)propan-2-ol]

SMILES: C=CCc1ccc(O)c(OC)c1 [eugenol]
- amount permeated [9]: 50 to 275 µg

From US20240016734A1 (Aquestive Therapeutics, Inc., priority 2022, published 2024)
